System: soluble epoxide hydrolase (sEH)
Test: Fluorescent assay for soluble epoxide hydrolase (CMNPC substrate), percent inhibition at the recited concentration
Format: biochemical
Conditions: Inhibition Conc. 200 nM
Procedure, shortened: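 Purified recombinant baculovirus-expressed sEH in 25 mM Bis/Tris HCl pH 7.0 with 0.1 mg/mL BSA; inhibitor serially diluted and preincubated with enzyme 5 min at 30 °C. Reaction started with 5 μM (final) substrate; fluorescence (ex 330/em 465 nm) read every 30 s for 10 min, and velocities give % inhibition.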

Row | SMILES | % inh. [%]
1 | CC(=O)N1CCC(NC(=O)N2CCC(NC(=O)NC34CC5CC(CC(C5)C3)C4)CC2)CC1 [Compound 7-57, N-(1-acetylpiperidin-4-yl)-4-(3-adamantylureido)piperidine-1-carboxamide] | 90
2 | CC(=O)N1CCC(NC(=O)NC23CCC(C)(CC2)CC3)CC1 [Compound 7-58, 1-(1-acetylpiperidin-4-yl)-3-(4-methylbicyclo[2.2.2]octan-1-yl)urea] | 84
3 | O=C(NC1CCN(C(=O)CCO)CC1)NC12CC3CC(CC(C3)C1)C2 [Compound 7-59, 1-adamantyl-3-(1-(3-hydroxypropanoyl)piperidin-4-yl)urea] | 86
4 | CC(C)(C)OC(=O)N1CCC(NC(=O)NC2CCCCCCC2)CC1 [Compound 7-64, tert-butyl 4-(3-cyclooctylureido)piperidine-1-carboxylate] | 97
5 | O=C(Nc1ccc(OC(F)(F)F)cc1)NC1CCN(C(=O)CCCO)CC1 [Compound 7-71, 1-(1-(4-hydroxybutanoyl)piperidin-4-yl)-3-(4-(trifluoromethoxy)phenyl)urea] | 84
6 | CC(C)(C)CC(=O)N1CCC(NC(=O)NC23CC4CC(CC(C4)C2)C3)CC1 [Compound 7-72, 1-adamantyl-3-(1-(3,3-dimethylbutanoyl)piperidin-4-yl)urea] | 96
7 | O=C(NC1CCN(C(=O)CCCO)CC1)NC12CC3CC(CC(C3)C1)C2 [Compound 7-73, 1-adamantyl-3-(1-(4-hydroxybutanoyl)piperidin-4-yl)urea] | 94
8 | O=C(NC1CCN(S(=O)(=O)CCCO)CC1)NC12CC3CC(CC(C3)C1)C2 [Compound 7-74, 1-adamantyl-3-(1-(3-hydroxypropylsulfonyl)piperidin-4-yl)urea] | 99
9 | O=C(Nc1ccc(OC(F)(F)F)cc1)NC1CCN(S(=O)(=O)CCCO)CC1 [Compound 7-75, 1-(1-(3-hydroxypropylsulfonyl)piperidin-4-yl)-3-(4-(trifluoromethoxy)phenyl)urea] | 100

Next, values leading:

Row | % inh. [%] | SMILES
10 | 94 | COCC(=O)N1CCC(NC(=O)NC23CC4CC(CC(C4)C2)C3)CC1 [Compound 7-76, 1-adamantyl-3-(1-(2-methoxyacetyl)piperidin-4-yl)urea]
11 | 99 | CC(C)(C)S(=O)(=O)N1CCC(NC(=O)Nc2ccc(OC(F)(F)F)cc2)CC1 [Compound 7-77, 1-(1-(tert-butylsulfonyl)piperidin-4-yl)-3-(4-(trifluoromethoxy)phenyl)urea]
12 | 95 | CC(C)(C)S(=O)(=O)N1CCC(NC(=O)NC23CC4CC(CC(C4)C2)C3)CC1 [Compound 7-78, 1-(1-(tert-butylsulfonyl)piperidin-4-yl)-3-adamantylurea]
13 | 98 | O=C(Nc1ccc(OC(F)(F)F)cc1)NC1CCN(C(=O)N2CCOCC2)CC1 [Compound 7-79, 1-(1-(morpholine-4-carbonyl)piperidin-4-yl)-3-(4-(trifluoromethoxy)phenyl)urea]
14 | 91 | CC(C)(C)C(=O)N1CCC(NC(=O)Nc2ccc(C#N)cc2)CC1 [Compound 7-81, 1-(4-cyanophenyl)-3-(1-pivaloylpiperidin-4-yl)urea]
15 | 95 | O=C(NC1CCN(C(=O)N2CCOCC2)CC1)NC12CC3CC(CC(C3)C1)C2 [Compound 7-82, 1-adamantyl-3-(1-(morpholine-4-carbonyl)piperidin-4-yl)urea]
16 | 92 | CC(=O)N1CCC(NC(=O)NC2CCCCCCC2)CC1 [Compound 7-84, 1-(1-acetylpiperidin-4-yl)-3-cyclooctylurea]

Same assay, conditions: Inhibition Conc. 500 nM

Row | % inh. [%] | SMILES
17 | 83 | O=C(NC1CCCCC1)NC1CCN(C(=O)CCCN2CCOCC2)CC1 [Compound 7-61, 1-cyclohexyl-3-(1-(4-morpholinobutanoyl)piperidin-4-yl)urea]
18 | 73 | CNS(=O)(=O)c1cccc(C(=O)N2CCC(NC(=O)Cc3ccc(Cl)cc3)CC2)c1 [Compound 7-85, 2-(4-chlorophenyl)-N-(1-(3-(N-methyl-sulfamoyl)benzoyl)-piperidin-4-yl)acetamide]

Same assay, conditions: Inhibition Conc. 2000 nM

Row | SMILES | % inh. [%]
19 | CC(=O)N1CCC(NC(=O)Nc2ccc(S(C)(=O)=O)cc2)CC1 [Compound 7-60, 1-(1-acetylpiperidin-4-yl)-3-(4-(methylsulfonyl)phenyl)urea] | 33
20 | CC(=O)N1CCC(NC(=O)NC2CCC(F)(F)CC2)CC1 [Compound 7-62, 1-(1-acetylpiperidin-4-yl)-3-(4,4-difluorocyclohexyl)urea] | 82
21 | CC(=O)N1CCC(NC(=O)NC2CCC2)CC1 [Compound 7-63, 1-(1-acetylpiperidin-4-yl)-3-cyclobutylurea] | 76
22 | CN(C)c1ccc(NC(=O)NC2CCN(C(=O)OC(C)(C)C)CC2)cc1 [Compound 7-65, tert-butyl 4-(3-(4-(dimethylamino)phenyl)ureido)piperidine-1-carboxylate] | 95
23 | COC(=O)c1ccc(NC(=O)NC2CCN(C(=O)OC(C)(C)C)CC2)cc1 [Compound 7-67, tert-butyl 4-(3-(4-(methoxycarbonyl)phenyl)ureido)piperidine-1-carboxylate] | 96
24 | CC(C)(C)OC(=O)N1CCC(NC(=O)Nc2ccc(CN3CCCC3)cc2)CC1 [Compound 7-68, tert-butyl 4-(3-(4-(pyrrolidin-1-ylmethyl)phenyl)ureido)piperidine-1-carboxylate] | 93
25 | COC(=O)c1ccc(NC(=O)NC2CCN(C(C)=O)CC2)cc1 [Compound 7-69, methyl 4-(3-(1-acetylpiperidin-4-yl)ureido)benzoate] | 69
26 | CC(C)(C)C(=O)N1CCC(NC(=O)Nc2ccc(S(C)(=O)=O)cc2)CC1 [Compound 7-70, 1-(4-(methylsulfonyl)phenyl)-3-(1-pivaloylpiperidin-4-yl)urea] | 90

Other lines, results leading:

Row | % inh. [%] | SMILES
27 | 80 | CC(=O)N1CCC(NC(=O)Nc2ccc(C#N)cc2)CC1 [Compound 7-80, 1-(1-acetylpiperidin-4-yl)-3-(4-cyanophenyl)urea]
28 | 100 | CC(=O)N1CCC(NC(=O)NC2CCC3(CCCC3)CC2)CC1 [Compound 7-83, 1-(1-acetylpiperidin-4-yl)-3-(spiro[4.5]decan-8-yl)urea]
29 | 90 | CC(C)(C)OC(=O)N1CCC(NC(=O)Nc2ccc(N3CCOCC3)cc2)CC1 [Compound 7-86, tert-butyl 4-(3-(4-morpholinophenyl)ureido)piperidine-1-carboxylate]
30 | 0 | CC(=O)N1CCC(NC(=O)Nc2ccc(N3CCOCC3)cc2)CC1 [Compound 7-87, 1-(1-acetylpiperidin-4-yl)-3-(4-morpholinophenyl)urea]
31 | 86 | CC(=O)N1CCC(NC(=O)NC2CCN(C(=O)OC(C)(C)C)CC2)CC1 [Compound 8-2, tert-butyl 4-(3-(1-acetylpiperidin-4-yl)ureido)piperidine-1-carboxylate]
32 | 0 | CC(=O)N1CCC(NC(=O)NC2CCN(C)CC2)CC1 [Compound 8-3, 1-(1-acetylpiperidin-4-yl)-3-(1-methylpiperidin-4-yl)urea]
33 | 23 | CC(=O)N1CCC(NC(=O)NC2CCOCC2)CC1 [Compound 8-4, 1-(1-acetylpiperidin-4-yl)-3-(tetrahydro-2H-pyran-4-yl)urea]
34 | 23 | CC(=O)N1CCC(NC(=O)NC2CCS(=O)(=O)CC2)CC1 [Compound 8-5, 1-(1-acetylpiperidin-4-yl)-3-(1,1-dioxo-tetrahydro-2H-thiopyran-4-yl)urea]
35 | 69 | CC(=O)N1CCC(NC(=O)NC2CCN(C(=O)C(C)(C)C)CC2)CC1 [Compound 8-6, 1-(1-acetylpiperidin-4-yl)-3-(1-pivaloylpiperidin-4-yl)urea]

Same assay, conditions: Inhibition Conc. 5000 nM

Row | % inh. [%] | SMILES
36 | 79 | CS(=O)(=O)N1CCC(NC(=O)NC2CCN(S(C)(=O)=O)CC2)CC1 [Compound 8-1, 1,3-bis(1-(methylsulfonyl)piperidin-4-yl)urea]

Reference: patent US20080227780A1, “SOLUBLE EPOXIDE HYDROLASE INHIBITORS” (Arete Therapeutics, Inc., priority 2007, published 2008)
